{"source": "patent US20130108701A1", "about": "“Solid Dosage Forms of Antipsychotics” (priority 2010, published 2013)", "origin": "cited, not measured here", "key": {"[1]": {"assay": "not given", "remark": "listed apart in the source"}}, "note": "Structures can show the parent of a compound that is named as a salt.", "data": [{"smiles": "O=C1Cc2cc(CCN3CCN(c4nsc5ccccc45)CC3)c(Cl)cc2N1", "note": "[Ziprasidone hydrochloride, 5-[2-[4-(1,2-benzisothiazol-3-yl)-1-piperazinyl]ethyl]-6-chloro-1,3-dihydro-2H-indol-2-one]", "values": [{"measurement": "permeability", "value": "high"}, {"measurement": "aqueous solubility", "setting": "[1]", "value": "relatively poor"}]}]}
